Measurements published in PMC8778091, “In Silico-Based Discovery of Natural Anthraquinones with Potential against Multidrug-Resistant E. coli” (Pharmaceuticals, 2022).
In brackets after ≈: the same amount, converted by molar mass. Read-outs that look alike come from different tables or passages of the source.

How the values were obtained:
[1] = tested on: E. coli (MDR) b clinical isolate; test: MIC, agar dilution method, E. coli MDR b; assay type: cell-based; details: Escherichia coli; range 1-64 µg/mL, 37 °C, 18-20 h; read-out: MIC E. coli (MDR) b
Protocol: (§1) The selected top-scoring hits were evaluated for their antibacterial effect against two clinical multidrug-resistant strains of enterotoxigenic E. coli. Both isolates were isolated as clinical samples from Beni Suef general hospital, Beni Suef, Egypt. […] MRSA (ATCC 25529) and VRSA (clinical isolate from Beni Suef general hospital, Beni Suef, Egypt) were also used to further evaluate the tested compounds against resistant Gram-positive bacteria.
(§2) Minimum inhibitory concentrations for the test compounds were analyzed following the standard agar dilution method using Meuller-Hinton (MH) agar medium against different Gram-negative and positive bacteria (Table 1). Firstly, the tested compounds were prepared as a stock suspension with a 10 mg/mL final concentration in DMSO. Subsequently, the prepared stocks were diluted in 10 mL molten soft agar (0.5% agar) to obtain a concentration range from 1–64 µg/mL, then mixed and poured over a surface of MH agar (2% agar) plates and left for solidification. Finally, exponentially grown (O.D 600 nm of 0.6) test strains (Table 1) were diluted to a final density of 10^6 CFU/mL in MH broth and spotted (1 µL/spot) over the soft agar. Then, the plates were left for drying and incubated at 37 °C for 18–20 h. Controls were conducted using DMSO seeded soft agar. At the end of the experiment, the MIC for each compound was identified as the minimum concentration that inhibited the growth of the tested strain. The experiments were carried out in triplicates.

MRSA (ATCC 25529) = test: MIC, agar dilution method, MRSA; assay type: cell-based, S. aureus; details: Staphylococcus aureus; range 1-64 µg/mL, 37 °C, 18-20 h; read-out: MIC MRSA
Protocol: as §1, §2

[2] = tested on: E. coli (MDR) a clinical isolate; test: MIC, agar dilution method, E. coli MDR a; assay type: cell-based; details: Escherichia coli; range 1-64 µg/mL, 37 °C, 18-20 h; read-out: MIC E. coli (MDR) a
Protocol: as §1, §2

[3] = biological target: T1, E. coli DAla:D-Ala ligase (Ddl-B) (Escherichia coli, UniProt P07862); test: Ddl-B enzymatic activity assay (inorganic phosphate, absorbance 650 nm); assay type: biochemical
T1 construct: purchased ProFoldin DDA100KE
Protocol: (§3) Ddl-B and Gyr-B activity assays were performed according to the manufacturer protocols (ProFoldin, Catalogue No. DDA100KE, and Inspiralis, Catalogue No. ATPG001, UK).
Ddl-B enzymatic activity assay is based on measuring the inorganic phosphate generated from the D-Alanine: D-Alanine ligation reaction. The inorganic phosphate is detected by absorbance at 650 nm. The assay reactions and detection were performed by using a 96-well plate. Different concentrations of the test compounds and the reference inhibitor D-cycloserine were prepared in DMSO (from 10 µM to 1000 µM). […] Thereafter, 33 μL of 10× enzyme substrate was prepared by mixing 3.3 μL of 100× enzyme substrate with 29.7 μL of water. Finally, 27 μL of the premix with 3 μL of the 10× enzyme substrate in each well were mixed. After 60 min of incubation at 37 °C, 45 μL of MPA3000 dye was added into the 30 μL of the reaction mixture. After 5 min of incubation, absorbance was measured at 650 nm.

[4] = Cellular toxicity against normal fibroblasts WI-38 (MTT); assay type: cell-based; details: human
Protocol: All selected top-scoring compounds were tested for their cellular toxicity against human fibroblasts cell line (WI-38). Cell line (WI-38; ATCC: CCL-75) was maintained in earth RPMI 1640 medium comprising 10% heat-inactivated fetal bovine serum (FBS) and grown at 37 °C and 5% CO2. The cell line was seeded on 96-well cell culture plates (2 × 10^4 cells/well). Cells were stimulated with tested compounds at different concentrations (from 1 to 50 µM) overnight in triplicates. Doxorubicin was used as a positive control. Cell viability was assessed by MTT assay. To normalize cell viability values, each plate included a triplicate of untreated cells considered as 100% viability, and a triplicate of cells treated with a cytotoxic mixture (200 ng/mL TNF, 200 ng/mL CD95L, 200 ng/mL TRAIL, 5 μg/mL CHX, 1% (w/v) sodium azide […]) considered as 0% viability. All other viability values were normalized according to the averages of these triplicates and analyzed by the Graph Pad Prism 5 software (La Jolla, CA, USA).

[5] = tested on: tested bacterial strains (E. coli MDR, MRSA, VRSA); test: Antibacterial evaluation, tested bacterial strains taken together; assay type: cell-based; details: Escherichia coli; E. coli MDR, MRSA, VRSA
Protocol: as §1, §2

VRSA (clinical isolate) = test: MIC, agar dilution method, VRSA; assay type: cell-based, S. aureus; details: Staphylococcus aureus, VRSA; range 1-64 µg/mL, 37 °C, 18-20 h; read-out: MIC VRSA
Protocol: as §1, §2

[6] = biological target: T2, E. coli gyrase B43 domain (Gyr-B) (Escherichia coli, UniProt P0AES6); test: biochemical; assay type: biochemical
T2 construct: 20 μL of the enzyme (E. coli gyrase B43 domain; 20 μM concentration); purchased Inspiralis ATPG001
Protocol: as §3
Gyr-B assay measured the capability of the tested compounds to hinder the ATPase activity of Gyr-B subunits. This assay links the hydrolysis of ATP by gyrase to the conversion of NADH to NAD^+, which can be measured by a change in absorbance at 340 nm. The assay reactions and detection were performed using a 96-well plate. […] First, the assay mix was prepared by mixing 20 μL of the assay buffer (50 mM Tris.HCl (pH 7.5), 1 mM EDTA, 5 mM magnesium chloride, 5 mM DTT, 10% (w/v) glycerol), 1 μL phosphoenolpyruvate (80 mM in water), 1.5 μL pyruvate kinase/lactate dehydrogenase stock, 2 μL NADH (20 mM in water), and 58.8 μL water. Thereafter, 63.3 μL of assay mix and 10 μL of the test compound solution and 20 μL of the enzyme (E. coli gyrase B43 domain; 20 μM concentration) were added into the wells and mixed by pipetting. After incubation for 10 min at 25 °C, 6.7 uL of ATP (30 mM) was added to each well. After 60 min of incubation at 25 °C, the absorbance was measured at 340 nm.

Structure (SMILES)	MIC [1] [µg/mL]	MIC (MRSA (ATCC 25529)) [µg/mL]	MIC [2] [µg/mL]	Ddl-B inhibition in words [3]	IC50 ([3]; 10-1000 µM tested, read-out: IC50 Ddl-B) [µM]	Ki ([3]; read-out: Ki Ddl-B) [µM]	CC50 ([4]; WI-38 normal fibroblast cells, WI-38, 1 to 50 µM overnight, MTT, read-out: CC50) [µM]	MIC [5] [µg/mL]	MIC (VRSA (clinical isolate)) [µg/mL]	Gyr-B inhibition in words [6]	IC50 [6] [µM]	Ki [6] [µM]	IC50 [3] [µM]	Ki [3] [µM]	CC50 [4] [µM]
O=C1c2c(O)cccc2C([C@@H]2O[C@H](CO)[C@@H](O)[C@H](O)[C@H]2O)c2cc(CO)cc(O)c21 (some centres unmarked) [Aloin]	> 64	> 64	> 64	weak inhibition	927 ± 7.4	529 ± 12.3	34.7 ± 0.94	> 64	> 64	weak inhibition	22.4 ± 2.1	10.5 ± 1.6	–	–	–
Cc1cc(O)c2c(c1)C(=O)c1cccc(O)c1C2=O [Chrysophanol]	4 (≈ 15.7 µM)	> 64	4 (≈ 15.7 µM)	more potent	–	–	–	2 to 4 (≈ 7.87 to 15.7 µM)	4 (≈ 15.7 µM)	–	1.5 ± 0.5	0.83 ± 0.2	236 ± 8.9	105 ± 4.9	48.1 ± 1.39
